As a reminder, the pIC50 is the negative decadic logarithm of the IC50, by convention in mol/L.

Structures are written as SMILES. pIC50: −log10 of the molar value.

In the experiment the target is Histone deacetylase 1 (Homo sapiens, UniProt Q13547). The experiment in a line: Inhibitory activity against human Histone deacetylase 1.
Chain of Histone deacetylase 1 (Q13547 whole entry): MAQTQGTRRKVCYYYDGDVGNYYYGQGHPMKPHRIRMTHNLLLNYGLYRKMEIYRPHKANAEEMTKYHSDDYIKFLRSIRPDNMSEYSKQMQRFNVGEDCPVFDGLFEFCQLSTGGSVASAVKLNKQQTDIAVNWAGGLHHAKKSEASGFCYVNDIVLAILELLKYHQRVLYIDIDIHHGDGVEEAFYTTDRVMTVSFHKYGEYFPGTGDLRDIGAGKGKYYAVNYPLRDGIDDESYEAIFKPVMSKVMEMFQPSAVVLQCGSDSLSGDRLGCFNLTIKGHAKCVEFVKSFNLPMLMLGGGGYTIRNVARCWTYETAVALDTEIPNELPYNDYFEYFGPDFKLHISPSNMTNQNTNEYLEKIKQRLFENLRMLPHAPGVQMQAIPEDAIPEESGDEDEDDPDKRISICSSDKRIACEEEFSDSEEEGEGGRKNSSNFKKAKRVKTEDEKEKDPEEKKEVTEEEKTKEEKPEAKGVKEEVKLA
As for `O=C(CCCCCC(NC(=O)OCc1ccccc1)C(=O)Nc1cccc2cccnc12)NO` (stereo not drawn), the pIC50 was 8.60.
`O=C(CCCCCC(C(=O)Nc1ccc2ncccc2c1)C(=O)Nc1ccc2ncccc2c1)NO` gave a pIC50 of 9.00.
Take `O=C(/C=C/c1cccc(C(C(=O)Nc2ccccc2)C(=O)Nc2ccccc2)c1)NO`: the pIC50 was 9.00.
